Like-named read-outs stand apart in the source and are kept apart here.

A short description of series [1]: log P determination by HPLC on reverse-phase column (C 18), acidic range pH 2.3 (EEC Directive 79/831 Annex V. A8). The format is physicochemical. Conditions: for chromatographic logP: reverse-phase HPLC column (C 18); for logP: Table 1 (I-c). How it is done: The stated log P values were determined in accordance with EEC Directive 79/831 Annex V. A8 by HPLC (High Performance Liquid Chromatography) on a reverse-phase column (C 18). Temperature: 43° C. Mobile phases for the determination in the acidic range (pH 2.3): 0.1% aqueous phosphoric acid, acetonitrile; linear gradient from 10% acetonitrile to 90% acetonitrile. Calibration was carried out using unbranched alkan-2-ones (having 3 to 16 carbon atoms) with known log P values (determination of the log P values by the retention times using linear interpolation between two successive alkanones).

The test system of series [2] is Podosphaera leucotricha. Kind of series: Podosphaera test (apple)/protective. The class given is in vivo. As to conditions: protective, application rate 100 g/ha, evaluation 10 days after inoculation, 0% = control, 100% = no infection. How it is done: (§1) To produce a suitable preparation of active compound, 1 part by weight of active compound is mixed with the stated amounts of solvents and emulsifier, and the concentrate is diluted with water to the desired concentration.
To test for protective activity, young plants are sprayed with the preparation of active compound at the stated application rate. After the spray coating has dried on, the plants are inoculated with an aqueous spore suspension of Podosphaera leucotricha. The plants are then placed in a greenhouse at about 23° C. and a relative atmospheric humidity of about 70%.
(§2) Evaluation is carried out 10 days after the inoculation. 0% means an efficacy which corresponds to that of the control, whereas an efficacy of 100% means that no infection is observed.

Series [3] deals with Venturia inaequalis. Kind of series: Venturia test (apple)/protective. The class given is in vivo. Conditions: protective, application rate 100 g/ha, evaluation 10 days after inoculation, 0% = control, 100% = no infection. How it is done:
as §1
To test for protective activity, young plants are sprayed with the preparation of active compound at the stated application rate. After the spray coating has dried on, the plants ate inoculated with an aqueous conidia suspension of the apple scab pathogen Venturia inaequalis and then remain in an incubation cabinet as about 20° C. and 100% relative atmospheric humidity for 1 day. The plants are then placed in a greenhouse at about 21° C. and a relative atmospheric humidity of about 90%.
as §2

The test system of series [4] is Puccinia recondita. Kind of series: Puccinia test (wheat)/protective. The format is in vivo. As to conditions: 240 h, protective, application rate 500 g/ha, evaluation 10 days after inoculation, 0% = control, 100% = no infection, read-out: Efficacy in %. How it is done:
(§3) To produce a suitable preparation of active compound, 1 part by weight of active compound is mixed with the stated amounts of solvent and emulsifier, and the concentrate is diluted with water to the desired concentration.
To test for protective activity, young plants are sprayed with the preparation of active compound at the stated application rate. After the spray coating has dried on, the plants are sprayed with a conidia suspension of Puccinia recondita. The plants remain in an incubation cabinet at 20° C. and 100% relative atmospheric humidity for 48 hours. The plants are then placed in a greenhouse at a temperature of about 20° C. and a relative atmospheric humidity of 80%.
as §2

Series [5] deals with Botrytis cinerea. Kind of series: Botrytis test (bean)/protective. The format is in vivo. Conditions: protective, application rate 500 g/ha, evaluation 2 days after inoculation (size of infected areas), 0% = control, 100% = no infection. How it is done: as §1
To test for protective activity, young plants are sprayed with the preparation of active compound at the stated application rate. After the spray coating has dried on 2 small pieces of agar colonized by Botrytis cinerea are placed onto each leaf. The inoculated plants are placed in a dark chamber at about 20° C. and 100% relative atmospheric humidity.
2 days after the inoculation, the size of the infected areas on the leaves is evaluated. 0% means an efficacy which corresponds to that of the control, whereas an efficacy of 100% means that no infection is observed.

In series [6] the test system is Alternaria solani. Briefly: Alternaria test (tomato)/protective. The class given is in vivo. As to conditions: protective, application rate 750 g/ha, evaluation 7 days after inoculation, 0% = control, 100% = no infection. How it is done: as §3
To test for protective activity, young tomato plants are sprayed with the preparation of active compound at the stated application rate. 1 day after the treatment, the plants are inoculated with a spore suspension of Alternaria solani and then remain at 100% relative atmospheric humidity and 20° C. for 24 h. The plants then remain at 96% relative atmospheric humidity and a temperature of 20° C.
Evaluation is carried out 7 days after the inoculation. 0% means an efficacy which corresponds to that of the control, whereas an efficacy of 100% means that no infection is observed.

Setting [7] is: pH 2.3, Table 1 (I-c), pH 2.3, HPLC C18, 43° C., main diastereomer or, where several values in a cell, the individual diastereomers, read-out: logP.
The mark [8] stands for this setting: pH 2.3, HPLC C18, 43° C., main diastereomer or, where several values in a cell, the individual diastereomers.

Regarding `Cc1nn(C)c(F)c1C(=O)NC1CCCCC1C(C)CC(C)C` (stereo not shown) [I-c-1], the chromatographic logP in series [1] (setting [7]) is 4.15. The Efficacy in % came out at 88% in series [2] and 100% in series [3]. Moreover, the pest or weed control at 500 g/ha in series [4] stood at 100%.
A word on the logP: it is a log measure of how a compound divides between an organic and an aqueous phase. Read a high logP as higher lipophilicity. Regarding `Cc1nc(C(F)F)c(C(=O)NC2CCCCC2C(C)CC(C)C)s1` (stereo not shown) [I-c-4, 4-(difluoromethyl)-N-[2-(1,3-dimethylbutyl)cyclohexyl]-2-methyl-1,3-thiazole-5-carboxamide], in series [1] (Example 1, pH 2.3, two values = mixture of diastereomers), the “log P (pH 2.3)” value was found to be 4.53. Besides, the logP in series [1] (setting [8]) is given as 4.53. Moreover, the chromatographic logP stood at 4.45 in series [1] (setting [7]) and 4.45 in series [1] (pH 2.3, text of Example 1, pH 2.3, two values = mixture of diastereomers, read-out: log P (pH 2.3)). The Efficacy in % in series [2] is recorded as 100%; in series [3], 98%; in series [5], 95%; in series [6], 100%. Also, the pest or weed control at 500 g/ha in series [4] was found to be 100%.
In series [1] (setting [8]), `CC(C)CC(C)C1CCCCC1NC(=O)c1nccnc1Cl` (stereo not shown) [I-c-5] returned a logP of 4.23. Moreover, the chromatographic logP in series [1] (setting [7]) turned out to be 4.12. The Efficacy in % in series [2] came to 100%; in series [3], 100%; in series [5] it was 99%; in series [6], 100%. In addition, the pest or weed control at 500 g/ha in series [4] was 100%.
For `CC(C)CC(C)C1CCCCC1NC(=O)c1cn(C)nc1C(F)F` (stereo not shown) [I-c-7], in series [1] (setting [8]), the logP was 4.28. Moreover, in series [1] (setting [7]), the chromatographic logP came out at 3.88. The Efficacy in % is reported as 100% in series [2], 100% in series [3], 94% in series [5] and 100% in series [6]. The pest or weed control at 500 g/ha in series [4] was determined as 100%.
`Cc1nn(C)cc1C(=O)NC1CCCCC1C(C)CC(C)C` (stereo not shown) [I-c-14] came in with a logP in series [1] (setting [8]) of 3.47. The chromatographic logP in series [1] (setting [7]) turned out to be 3.18. In series [4], the pest or weed control at 500 g/ha was found to be 100%. The molecule further gave an Efficacy in % in series [6] of 100%.

The record behind these values is patent US8748471B2, “2-alkyl-cycloalk(en)yl-carboxamides” (priority 2004, dated 2014).
